“And” between values parts separate entries of the source, which are not always exact repeats. Equal values may be shown once. Read-outs that look alike come from different tables or passages of the source.
Assay: Pharmacokinetics study after separate oral administration in rats (HPLC-MS of plasma)
Assay type: in vivo, Sprague-Dawley rats
Conditions: for half-life: read-out: t1/2z
Experimental: A total of 15 SPF Sprague-Dawley rats (SD, male, 190–210 g) were provided by Sino-British Sippr/BK Lab Animal Company Ltd. (Shanghai, China). The rats were kept in standard conditions (22–26 °C; 40–60% relative humidity; 12 h light/dark cycle). Throughout the rearing period, the animals had access to food and water ad libitum. Animal experiments were conducted in accordance with the standard ethical guidelines of the Laboratory Animal Management Committee of Jiangsu Province (SYXK (SU) 2016-0011).
Following 1 week of adaptation, the rats were fasted for about 12 h before dosing, with free access to water. […] After administration of the first dose, blood samples were taken from the retro-orbital vein at 0, 5, 15, 30, 60, 90, 120, 180, 240, 360, 480, and 1,440 min and collected in heparinized tubes. The samples were centrifuged at 3,500 rpm for 10 min at 4 °C and the plasma was stored at −80 °C until analysis.
An Agilent 1,200 series HPLC system (Agilent Technologies, Waldbronn, Germany) equipped with a quaternary pump on-line degasser, auto-sampler and column oven, and an SL G1946D quadruple mass spectrometer (Agilent Technologies, Santa Clara, CA, USA) equipped with an electrospray ionization (ESI) source, were used for separation and detection. Data were acquired and analyzed using Agilent ChemStation Software Version A.01.00 (Agilent Technologies, Santa Clara, CA, USA).
The separation was carried out with an Amethyst C18-H column (150 × 4.6 mm, 5 μm, Sepax Technologies, Newark, DE, USA) with a guard column SB-C18 (10 × 4.6 mm, 5 μm, Phenomenex Technologies, Torrance, USA) at a constant temperature of 25 °C.
The mass spectra were acquired using ESI interfaced to a single quadrupole mass spectrometer. The ionization conditions were as follows: drying gas (N2) flow rate of 11 L/min, drying gas temperature of 350 °C, nebulizing gas (N2) pressure of 35 psi, capillary voltage of 3,500 V, quad temperature of 100 °C, and fragment voltage of 110 V. A series of m/z were monitored using a timed program according to the retention times and characteristic ions for the corresponding HPLC-MS peak obtained by scanning from m/z 100–1,000 in the standard sample.
Briefly, an aliquot of plasma sample (100 μL) was spiked with 5% formic acid (10 μL) in centrifuge tube. Subsequently, hydrochloric acid (2 mol/L, 10 μL) and IS solution (960.00 ng/mL, 20 μL) were added. Then ethyl acetate/n-butyl alcohol (1:1 v/v; 1,000 μL) was used to extract the components. The samples were then homogenized by vortex mixing and centrifuged for 10 min at 14,000 rpm. After centrifugation, 800 μL of supernatant was transferred to another centrifuge tube and the sample was evaporated to dryness. The residues were dissolved in 100 μL of methanol and centrifuged for 10 min at 12,000 rpm. 50 μL of the supernatant was transferred to the vial and an aliquot of 5 μL was injected into the HPLC-MS system for analysis.
DAS 2.0 (Chinese Pharmacological Association, Shanghai, China) was used to calculate the pharmacokinetic parameters using the non-compartment model, including the area under curve (AUC), mean residence time (MRT), half-life ( t1/2z), clearance rate (CL), maximum plasma concentration (Cmax), and time (Tmax). All results are expressed as mean ± standard deviation (SD). One way analysis of variance followed by […] was used for comparison of different groups using Graph pad prism 5 software. A p-value of <0.05 was considered statistically significant.

[1] = IQ group (oral IQ 50 mg/kg), rat plasma, labelled substance = analyte, individual rats No1-No5

O=c1c(O[C@@H]2O[C@H](CO)[C@@H](O)[C@H](O)[C@H]2O)c(-c2ccc(O)c(O)c2)oc2cc(O)cc(O)c12 [IQ, Isoquercitrin]
Plasma concentrations (IQ group (oral IQ 50 mg/kg), 5 min, individual rats NO. 1-5): 0.0934 µg/mL and 0.0774 µg/mL and 0.0493 µg/mL and 0.0335 µg/mL and 0.1108 µg/mL
Plasma concentrations (IQ group (oral IQ 50 mg/kg), 15 min, individual rats NO. 1-5): 0.3981 µg/mL and 0.2105 µg/mL and 0.1113 µg/mL and 0.0464 µg/mL and 0.3803 µg/mL
Plasma concentrations (IQ group (oral IQ 50 mg/kg), 30 min, individual rats NO. 1-5): 0.3658 µg/mL and 0.4136 µg/mL and 0.1507 µg/mL and 0.3866 µg/mL and 0.3886 µg/mL
Plasma concentrations (IQ group (oral IQ 50 mg/kg), 60 min, individual rats NO. 1-5): 0.1335 µg/mL and 0.1563 µg/mL and 0.1140 µg/mL and 0.0299 µg/mL and 0.2027 µg/mL
Plasma concentrations (IQ group (oral IQ 50 mg/kg), 90 min, individual rats NO. 1-5): 0.0372 µg/mL and 0.1114 µg/mL and 0.0310 µg/mL and 0.0260 µg/mL and 0.1543 µg/mL
Plasma concentrations (IQ group (oral IQ 50 mg/kg), 120 min, individual rats NO. 1-5): 0.0000 μg/mL (3×) and 0.0534 μg/mL and 0.0884 μg/mL
Plasma concentrations (IQ group (oral IQ 50 mg/kg), 180 min, individual rats NO. 1-5): 0.0000 µg/mL
Plasma concentrations (IQ group (oral IQ 50 mg/kg), 240 min, individual rats NO. 1-5): 0.0000 µg/mL
Plasma concentrations (IQ group (oral IQ 50 mg/kg), 360 min, individual rats NO. 1-5): 0.0000 µg/mL
Plasma concentrations (IQ group (oral IQ 50 mg/kg), 480 min, individual rats NO. 1-5): 0.0000 µg/mL
Plasma concentrations (IQ group (oral IQ 50 mg/kg), 1440 min, individual rats NO. 1-5): 0.0000 µg/mL
AUC(0-t) [1]: 307.8 ng·h/mL and 355.8 ng·h/mL and 150.6 ng·h/mL and 180.27 ng·h/mL and 439.42 ng·h/mL
CLz/F [1]: 2565 mL/min/kg and 2104 mL/min/kg and 4792 mL/min/kg and 3572 mL/min/kg and 1528 mL/min/kg
Cmax [1]: 398.1 ng/mL and 413.6 ng/mL and 150.7 ng/mL and 386.6 ng/mL and 388.6 ng/mL
MRT(0-t) [1]: 46.827 min and 41.112 min and 33.266 min and 48.488 min
Tmax [1]: 30 min
t1/2z [1]: 18.181 min and 30.631 min and 26.313 min and 87.922 min and 49.884 min
Detection in rat plasma (IQ group: oral IQ 50 mg/kg): could be detected in rat plasma
Time until which the AUC could be accessed (IQ group: oral IQ 50 mg/kg): 90 to 120 min
CL (IQ group: oral IQ 50 mg/kg, rat plasma, mean ± SD, n = 5): 2910 ± 1290 mL/min/kg
concentration at 180 min (male, Sprague-Dawley, rat, plasma, oral, 50 mg/kg, IQ group (oral IQ 50 mg/kg), 180 min, individual rats NO. 1-5, read-out: Plasma concentrations): 0 ng/mL
concentration at 240 min (male, Sprague-Dawley, rat, plasma, oral, 50 mg/kg, IQ group (oral IQ 50 mg/kg), 240 min, individual rats NO. 1-5, read-out: Plasma concentrations): 0 ng/mL
concentration at 360 min (male, Sprague-Dawley, rat, plasma, oral, 50 mg/kg, IQ group (oral IQ 50 mg/kg), 360 min, individual rats NO. 1-5, read-out: Plasma concentrations): 0 ng/mL
concentration at 480 min (male, Sprague-Dawley, rat, plasma, oral, 50 mg/kg, IQ group (oral IQ 50 mg/kg), 480 min, individual rats NO. 1-5, read-out: Plasma concentrations): 0 ng/mL
concentration at 1440 min (male, Sprague-Dawley, rat, plasma, oral, 50 mg/kg, IQ group (oral IQ 50 mg/kg), 1440 min, individual rats NO. 1-5, read-out: Plasma concentrations): 0 ng/mL
MRT last (male, Sprague-Dawley, rat, plasma, po, 50 mg/kg, IQ group (oral IQ 50 mg/kg), rat plasma, labelled substance = analyte, individual rats No1-No5, read-out: MRT(0-t) (converted)): 33.3 min
Tmax (male, Sprague-Dawley, rat, plasma, po, 50 mg/kg, IQ group (oral IQ 50 mg/kg), rat plasma, labelled substance = analyte, individual rats No1-No5, read-out: Tmax (converted)): 15 min
AUC(0-t) (male, Sprague-Dawley, rat, plasma, po, 50 mg/kg, IQ group (oral IQ 50 mg/kg), rat plasma, labelled substance = analyte, mean of 5 rats, read-out: AUC(0-t) (converted)): 287 ng·h/mL
CL/F (male, Sprague-Dawley, rat, plasma, po, 50 mg/kg, IQ group (oral IQ 50 mg/kg), rat plasma, labelled substance = analyte, mean of 5 rats, read-out: CLz/F): 2910 mL/min/kg
Cmax (male, Sprague-Dawley, rat, plasma, po, 50 mg/kg, IQ group (oral IQ 50 mg/kg), rat plasma, labelled substance = analyte, mean of 5 rats, read-out: Cmax): 348 ng/mL
MRT last (male, Sprague-Dawley, rat, plasma, po, 50 mg/kg, IQ group (oral IQ 50 mg/kg), rat plasma, labelled substance = analyte, mean of 5 rats, read-out: MRT(0-t) (converted)): 40.6 min
Tmax (male, Sprague-Dawley, rat, plasma, po, 50 mg/kg, IQ group (oral IQ 50 mg/kg), rat plasma, labelled substance = analyte, mean of 5 rats, read-out: Tmax (converted)): 27 min
half-life (male, Sprague-Dawley, rat, plasma, po, 50 mg/kg, IQ group (oral IQ 50 mg/kg), rat plasma, labelled substance = analyte, mean of 5 rats): 42.6 min
AUC(0-t) (male, Sprague-Dawley, rat, plasma, po, 50 mg/kg, IQ group: oral IQ 50 mg/kg, rat plasma, mean ± SD, n = 5, read-out: AUC0−t (converted)): 287 ng·h/mL
Cmax (male, Sprague-Dawley, rat, plasma, po, 50 mg/kg, IQ group: oral IQ 50 mg/kg, rat plasma, mean ± SD, n = 5, read-out: Cmax): 350 ± 110 ng/mL
MRT last (male, Sprague-Dawley, rat, plasma, po, 50 mg/kg, IQ group: oral IQ 50 mg/kg, rat plasma, mean ± SD, n = 5, read-out: MRT0−t (converted)): 40.6 min
Tmax (male, Sprague-Dawley, rat, plasma, po, 50 mg/kg, IQ group: oral IQ 50 mg/kg, rat plasma, mean ± SD, n = 5, read-out: Tmax (converted)): 27 min
half-life (male, Sprague-Dawley, rat, plasma, po, 50 mg/kg, IQ group: oral IQ 50 mg/kg, rat plasma, mean ± SD, n = 5): 42.6 ± 27.9 min

Source: paper PMC6440464 (PeerJ, 2019)
